Data taken from publication PMC7862066, “A novel UBE2T inhibitor suppresses Wnt/β-catenin signaling hyperactivation and gastric cancer progression by blocking RACK1 ubiquitination” (Oncogene, 2020).

Target: T1, UBE2T (Homo sapiens, UniProt Q9NPD8)
T1 construct: fluorescently labelled UBE2T protein for MST
Assay: microscale thermophoresis
Assay type: binding
Details: fluorescently labelled UBE2T; compound titrated 31 nM to 500 μM

T1 sequence (Q9NPD8 whole entry): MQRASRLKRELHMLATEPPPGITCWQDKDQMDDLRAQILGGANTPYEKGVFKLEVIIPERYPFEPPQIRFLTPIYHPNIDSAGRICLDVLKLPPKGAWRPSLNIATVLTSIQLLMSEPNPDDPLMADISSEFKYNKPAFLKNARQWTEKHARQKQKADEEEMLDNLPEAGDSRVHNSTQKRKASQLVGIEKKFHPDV

NS(=O)(=O)c1ccc(NC(=O)c2c(O)c3c4c(sc3[nH]c2=O)CCCC4)cc1 [M435-1279]
Kd: 50.5 µM
